Reference: patent US10793576B2, “Compound used as Bruton's tyrosine kinase inhibitor and preparation method and application thereof” (Chengdu Brilliant Pharmaceutical Co., LTD., priority 2017, dated 2020)

Molecular target: BTK kinase (Homo sapiens (Human), UniProt Q06187)
Assay: In vitro assay for the inhibition of BTK kinase activity (Mobility-Shift Assay)
Type: biochemical
Description: Mobility-Shift Assay, which is microfluidic chip technology, applies the basic concept of capillary electrophoresis to microfluidic environments. The substrate used for the experiment is a polypeptide with a fluorescent label. Under the action of enzyme in the reaction system, the substrate is transformed into a product, and the charge the substrate carries also changes accordingly. The use of the charge difference between the substrate and the product involved in Mobility-Shift Assay achieves the separating of the two, and they are tested respectively. The test results are expressed by conversion rates.
(3) 100% DMSO was added to the positive control well and the negative control well, respectively;

BTK kinase, sequence (Q06187 whole entry): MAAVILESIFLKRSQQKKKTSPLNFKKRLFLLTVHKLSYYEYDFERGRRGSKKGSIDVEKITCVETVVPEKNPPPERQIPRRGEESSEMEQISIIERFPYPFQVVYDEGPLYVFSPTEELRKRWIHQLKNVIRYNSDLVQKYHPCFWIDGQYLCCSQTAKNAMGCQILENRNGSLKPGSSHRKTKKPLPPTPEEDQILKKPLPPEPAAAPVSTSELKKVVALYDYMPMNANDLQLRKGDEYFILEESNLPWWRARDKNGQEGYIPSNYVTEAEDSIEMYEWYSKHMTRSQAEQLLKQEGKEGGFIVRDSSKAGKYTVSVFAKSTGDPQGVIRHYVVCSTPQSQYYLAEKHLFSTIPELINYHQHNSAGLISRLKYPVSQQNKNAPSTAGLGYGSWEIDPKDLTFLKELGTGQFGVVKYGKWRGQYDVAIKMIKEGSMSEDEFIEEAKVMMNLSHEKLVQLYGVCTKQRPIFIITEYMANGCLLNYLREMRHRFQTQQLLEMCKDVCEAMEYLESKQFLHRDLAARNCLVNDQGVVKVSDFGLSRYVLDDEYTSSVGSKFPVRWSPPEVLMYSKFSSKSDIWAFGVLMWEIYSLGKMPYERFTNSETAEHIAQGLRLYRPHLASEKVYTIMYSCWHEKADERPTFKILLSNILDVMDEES

| IC50 | Compound |
| --- | --- |
| 49 nM | C=CC(=O)N1CC2CCC1(c1nc(-c3ccc(C(=O)Nc4ccccn4)cc3)c3c(N)nccn13)C2 (stereo not drawn) [Example 122, 4-(3-(2-acryloyl-2-azabicyclo[2.2.1]heptan-1-yl)-8-aminoimidazo[1,5-a]pyrazin-1-yl)-N-(pyridin-2-yl)benzamide] |
| 79 nM | C=CC(=O)N1C2C[C@@H](C1c1nc(-c3ccc(C(C)(O)c4ccccc4)cc3)c3c(N)nccn13)N(C(C)=O)C2 (stereo partly drawn) [Example 90] |
| 43 nM | CC#CC(=O)N1CC2CCC1(c1nc(-c3ccc(C(=O)Nc4ccccn4)cc3)c3c(N)nccn13)CC2 [Example 121, 4-(8-amino-3-(2-(but-2-ynoyl)-2-azabicyclo[2.2.2]octan-1-yl)imidazo[1,5-a]pyrazin-1-yl)-N-(pyridin-2-yl)benzamide] |
| 46 nM | CC#CC(=O)N1C[C@H]2[C@@H]([C@H]1c1nc(-c3ccc(C(C)(O)c4ccccc4)cc3)c3c(N)nccn13)C2(C)C (stereo partly drawn) [Example 76] |
| 72 nM | CC#CC(=O)N1CC2CCC1(c1nc(-c3ccc(C(=O)Nc4ccccn4)cc3)c3c(N)nccn13)C2 (stereo not drawn) [Example 123, 4-(8-amino-3-(2-(but-2-ynoyl)-2-azabicyclo[2.2.1]heptan-1-yl)imidazo[1,5-a]pyrazin-1-yl)-N-(pyridin-2-yl)benzamide] |
| 51 nM | C=CC(=O)N1C2C[C@@H](C1c1nc(-c3ccc(C(C)(O)c4ccccc4)cc3)c3c(N)nccn13)N(C)C2 (stereo partly drawn) [Example 88] |
| 104 nM | CC(C)/C=C(/C#N)C(=O)N1CC2CCCC2[C@H]1c1nc(-c2ccc(C(=O)Nc3ccccn3)cc2)c2c(N)nccn12 (stereo partly drawn) [Example 117, 4-(8-amino-3-((1S)-2-((Z)-2-cyano-4-methyl-2-pentenoyl)octahydrocyclopenta [c]pyrrol-1-yl)imidazo[1,5-a]pyrazin-1-yl)-N-(pyridin-2-yl)benzamide] |

The remaining lines, values behind:

| Compound | IC50 |
| --- | --- |
| CC#CC(=O)N1CCC2(CC2c2nc(-c3ccc(C(=O)Nc4ccccn4)cc3)c3c(N)nccn23)C1 (stereo not drawn) [Example 31] | 736 nM |
| C=CC(=O)N1C(c2nc(-c3ccc(C(=O)Nc4cc(C(F)(F)F)ccn4)cc3)c3c(N)nccn23)CC2CC21 (stereo not drawn) [Example 50] | 69 nM |
| C=CC(=O)N1C(c2nc(-c3ccc(C(=O)Nc4ccccn4)cc3)c3c(N)nccn23)CC2CC21 (stereo not drawn) [Example 24] | 176 nM |
| CC#CC(=O)N1C[C@@H]2C[C@]1(c1nc(-c3ccc(C(=O)Nc4ccccn4)cc3)c3c(N)nccn13)CCO2 [Example 8] | 197 nM |
| CC#CC(=O)N1C(c2nc(-c3ccc(C(=O)Nc4ccccn4)cc3)c3c(N)nccn23)CC2CC21 (stereo not drawn) [Example 25] | 342 nM |
| CC#CC(=O)N1C(c2nc(-c3ccc(C(=O)Nc4cc(C)ccn4)cc3)c3c(N)nccn23)CC2CC21 (stereo not drawn) [Example 65] | 58 nM |
| C=CC(=O)N1CCC2(CC1)CC(c1nc(-c3ccc(C(=O)Nc4ccccn4)cc3)c3c(N)nccn13)CO2 (stereo not drawn) [Example 26] | 477 nM |
| C=CC(=O)N1CC2CCC2(c2nc(-c3ccc(C(=O)Nc4ccccn4)cc3)c3c(N)nccn23)C1 (stereo not drawn) [Example 34] | 66 nM |
| CC#CC(=O)N1CC2CCC2(c2nc(-c3ccc(C(=O)Nc4ccccn4)cc3)c3c(N)nccn23)C1 (stereo not drawn) [Example 35] | 67 nM |
| CC#CC(=O)NC12CC3CC(C1)CC(c1nc(-c4ccc(C(=O)Nc5ccccn5)cc4)c4c(N)nccn14)(C3)C2 [Example 29] | 216 nM |
| CC#CC(=O)N1CC2(CCNCC2)CC1c1nc(-c2ccc(C(=O)Nc3ccccn3)cc2)c2c(N)nccn12 (stereo not drawn) [Example 37] | 46 nM |
| C=CC(=O)N1C[C@H]2[C@@H]([C@H]1c1nc(-c3ccc(C(C)(O)c4ccccc4)cc3)c3c(N)nccn13)C2(C)C (stereo partly drawn) [Example 75] | 57 nM |
| C=CC(=O)N1CC2(CC2)C[C@H]1c1nc(-c2ccc(C(=O)Nc3cc(C(F)(F)F)ccn3)cc2)c2c(N)nccn12 [Example 41, (S)-4-(3-(5-acryloyl-5-azaspiro[2.4]heptan-6-yl)-8-aminoimidazo[1,5-a]pyrazin-1-yl)-N-(4-(trifluoromethyl)pyridin-2-yl)benzamide] | 52 nM |
| C=CC(=O)N1CC2C[C@H]1C(c1nc(-c3ccc(C(=O)Nc4ccccn4)cc3)c3c(N)nccn13)N2 (stereo partly drawn) [Example 19] | 400 nM |
